Measured values taken from US20060117411A1, “Enhancing plant pathogen resistance via increasing BiP levels” (priority 1998, published 2006).

System: BiP gene expression
Experiment: Leaf treatment of tobacco plants, Northern blot of BiP transcripts in treated (local) and untreated (systemic) leaves
Type: in vivo, Nicotiana tabacum
Details: after 3 and 8 hours; tunicamycin 0.02 mM
From the text: We have shown that treatment of tobacco plants with cell wall-degrading enzymes (CDE) leads to the rapid induction of β-1,3-glucanase and other PR genes, both locally and systemically (Vidal et al, 1997). […] We used a commercial preparation of fungal CDEs instead of custom made Erwinia-derived hydrolases to increase reproducibility. […] This induction was observed locally as well systemically with the same timing and intensity. β-1,3-glucanase transcript accumulation is detectable only after 4 hours of incubation and reaches its plateau after 8 hours as described previously (Vidal et al, 1997). Whereas BiP induction is transient, β-1,3-glucanase mRNA levels continue to be high after prolonged incubation times (24-48 hours). […] The signal involved in the systemic response of BiP gene expression must therefore be transported very rapidly from the local leaf to the distal leaves.
Even though BiP induction occurs prior to β-1,3 glucanase induction, we cannot rule out that other, as yet unidentified defence related proteins are induced more rapidly and perhaps before BiP in our experimental system. If this were the case, it would still be possible that the rapid induction of BiP is the result of a feedback mechanism due to ER stress resulting from the increased synthesis of proteins on the rough ER, the unfolded protein response (UPR). […]

Question: Which “BiP mRNA levels in the treated leaf” value does the source give for tunicamycin here?
Answer: The value was “strong increase”.
